The values that follow come from US10039753B2, “Imidazo[4,5-c]quinoline and imidazo[4,5-c][1,5]naphthyridine derivatives as LRRK2 inhibitors” (Pfizer Inc., priority 2015, dated 2018).

Counter-ions that a name gives are not always drawn. Like-named read-outs stand apart in the source and are kept apart here.

Test [1] concerns the target T1, GST-tagged truncated LRRK2 (Homo sapiens, UniProt Q5S007).
T1 construct: GST-tagged truncated LRRK2 from Invitrogen (Cat # PV4874); GST; purchased Invitrogen PV4874
Kind of test: LRRK2 Assay, Format 1 (Lantha Screen), WT. Type of test: biochemical. To be noted: Format 1, wild-type LRRK2; geometric mean of 2-4 determinations unless footnoted (a: ≥5 determinations; b: single determination; c: determined on trifluoroacetate salt). As for the experimental part: LRRK2 kinase activity was measured using Lantha Screen technology from Invitrogen. GST-tagged truncated LRRK2 from Invitrogen (Cat # PV4874) was incubated with a fluorescein-labeled peptide substrate based upon ezrin/radixin/moesin (ERM), also known as LRRKtide (Invitrogen cat # PR8976A), in the presence of a dose response of compound. Upon completion, the assay was stopped and detected with a terbium labeled anti-phospho-ERM antibody (Invitrogen, cat # PR8975A). […] Aliquots (3.5 μL) of the 100% DMSO dose response were mixed with 46.5 μL water then 1 μL of this mixture was added to the 3 μL substrate mix in the 384-well plate. The kinase reaction was started with 3 μL of a working solution of LRRK2 enzyme at a concentration of 4 μg/mL. […] The reaction was allowed to progress at room temperature for two hours and then stopped with the addition of 7 μL of detection buffer (20 mM Tris pH 7.6, 0.01% NP-40, 0.02% NaN3, 6 mM EDTA with 2 nM terbium labeled anti-phospho-ERM).

Test [2] addresses mutant G2019S LRRK2 (Homo sapiens, UniProt Q5S007, G2019S). In words: LRRK2 Assay, Format 1 (Lantha Screen), G2019S mutant.
Text: All final concentrations of substrate ATP and enzyme were the same.

mutant G2019S LRRK2, sequence (Q5S007 970-2527 G2019S limits assumed): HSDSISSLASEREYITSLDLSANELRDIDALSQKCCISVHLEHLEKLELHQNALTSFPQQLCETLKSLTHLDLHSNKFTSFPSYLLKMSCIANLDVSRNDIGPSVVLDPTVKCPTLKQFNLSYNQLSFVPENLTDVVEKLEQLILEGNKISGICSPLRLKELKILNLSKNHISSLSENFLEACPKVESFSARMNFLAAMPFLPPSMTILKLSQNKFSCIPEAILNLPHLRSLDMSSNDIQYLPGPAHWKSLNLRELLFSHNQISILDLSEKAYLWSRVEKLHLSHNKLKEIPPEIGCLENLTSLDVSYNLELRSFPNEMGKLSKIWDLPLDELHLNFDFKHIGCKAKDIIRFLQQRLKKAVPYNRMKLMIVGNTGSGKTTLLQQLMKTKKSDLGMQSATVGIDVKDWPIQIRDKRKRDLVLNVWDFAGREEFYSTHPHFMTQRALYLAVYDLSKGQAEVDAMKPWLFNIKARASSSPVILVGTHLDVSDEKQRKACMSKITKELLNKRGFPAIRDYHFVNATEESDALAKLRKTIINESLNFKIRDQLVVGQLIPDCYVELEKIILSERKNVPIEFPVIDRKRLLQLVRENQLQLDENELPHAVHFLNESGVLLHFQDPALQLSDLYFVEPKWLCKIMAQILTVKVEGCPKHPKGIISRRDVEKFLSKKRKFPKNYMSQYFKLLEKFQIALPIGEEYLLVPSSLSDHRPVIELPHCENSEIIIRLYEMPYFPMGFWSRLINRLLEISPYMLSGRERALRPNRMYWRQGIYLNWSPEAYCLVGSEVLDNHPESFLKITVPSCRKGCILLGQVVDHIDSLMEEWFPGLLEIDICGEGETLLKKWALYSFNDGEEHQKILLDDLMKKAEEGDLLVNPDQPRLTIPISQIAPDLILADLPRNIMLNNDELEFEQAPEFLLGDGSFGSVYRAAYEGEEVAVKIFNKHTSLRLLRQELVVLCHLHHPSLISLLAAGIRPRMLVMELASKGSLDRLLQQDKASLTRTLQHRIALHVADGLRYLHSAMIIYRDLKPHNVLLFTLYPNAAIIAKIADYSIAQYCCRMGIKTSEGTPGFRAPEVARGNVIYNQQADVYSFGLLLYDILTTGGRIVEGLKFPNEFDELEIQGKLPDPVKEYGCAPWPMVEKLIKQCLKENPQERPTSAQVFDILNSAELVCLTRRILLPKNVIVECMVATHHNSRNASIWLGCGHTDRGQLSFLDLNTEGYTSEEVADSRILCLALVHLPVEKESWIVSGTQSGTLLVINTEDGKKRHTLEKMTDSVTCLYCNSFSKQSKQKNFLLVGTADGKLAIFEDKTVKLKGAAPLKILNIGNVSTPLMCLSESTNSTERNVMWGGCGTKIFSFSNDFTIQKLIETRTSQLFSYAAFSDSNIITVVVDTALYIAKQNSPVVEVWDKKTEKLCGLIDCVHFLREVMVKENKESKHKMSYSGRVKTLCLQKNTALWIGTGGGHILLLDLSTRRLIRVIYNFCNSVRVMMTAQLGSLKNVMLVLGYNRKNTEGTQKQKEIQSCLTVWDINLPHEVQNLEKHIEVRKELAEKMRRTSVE
T1 sequence (Q5S007 970-2527 limits assumed): as the sequence (Q5S007 970-2527 G2019S limits assumed) above, with S1050G counted along it

In general, IC50 refers to the concentration that gives 50% inhibition. In the case of `C[C@@H]1C[C@H](n2c(Cc3cscn3)nc3cnc4ccc(Cl)cc4c32)CCO1` [Example 10, 8-Chloro-1-[(2R,4R)-2-methyltetrahydro-2H-pyran-4-yl]-2-(1,3-thiazol-4-ylmethyl)(4-^2H)-1H-imidazo[4,5-c]quinoline], the IC50 in test [1] worked out at 5 nM; in test [2] (read-out: LRRK2, Format 1 G2019S IC50, Format 1, G2019S mutant LRRK2, geometric mean of 2-4 determinations unless footnoted (a: ≥5 determinations; b: single determination; c: determined on trifluoroacetate salt)), 3 nM.
For the molecule `C[C@@H]1C[C@H](n2c(Cc3ncon3)nc3cnc4ccc(Cl)cc4c32)CCO1` [Example 13, 8-chloro-1-[(2R,4R)-2-methyltetrahydro-2H-pyran-4-yl]-2-(1,2,4-oxadiazol-3-ylmethyl)-1H-imidazo[4,5-c]quinoline], the IC50 in test [1] came to 10.3 nM; in test [2], 6.4 nM.
`Cc1nc2cnc3ccc(C#N)cc3c2n1C1CCOCC1` [Example 14, 2-methyl-1-(tetrahydro-2H-pyran-4-yl)-1H-imidazo[4,5-c]quinoline-8-carbonitrile]: the figures for the IC50 in test [1] and in test [2] were 160 nM and 191 nM, respectively.
Consider `F[C@H]1CC[C@@H](n2c(Cc3ccon3)nc3cnc4ccccc4c32)C1` [Example 16, 1-[(1R,3S)-3-fluorocyclopentyl]-2-(1,2-oxazol-3-ylmethyl)-1H-imidazo[4,5-c]quinoline], for which the IC50 is 158 nM in test [1] and 184 nM in test [2].
As for `Cc1nc2cnc3ccc(Cl)cc3c2n1C1CCOCC1` [Example 17, 8-chloro-2-methyl-1-(tetrahydro-2H-pyran-4-yl)-1H-imidazo[4,5-c]quinoline], the results for the IC50 in test [1] and in test [2] were 125 nM and 132 nM, respectively.
Turning to `c1ccc2c(c1)ncc1nc(Cc3ccon3)n(C3CCOCC3)c12` [Example 18, 2-(1,2-oxazol-3-ylmethyl)-1-(tetrahydro-2H-pyran-4-yl)-1H-imidazo[4,5-c]quinoline], the IC50 in test [1] turned out to be 153 nM; in test [2], 250 nM.
Turning to `Cc1nc2cnc3ccc(C#N)cc3c2n1[C@H]1CC[C@@H](F)C1` [Example 20, 1-[(1S,3R)-3-fluorocyclopentyl]-2-methyl-1H-imidazo[4,5-c]quinoline-8-carbonitrile], the IC50 in test [1] is 195 nM; in test [2] it was 174 nM.
On to `C[C@@H]1C[C@H](n2c(Cc3ccon3)nc3cnc4ccc(C#N)cc4c32)CCO1` [Example 22, 1-[(2R,4R)-2-methyltetrahydro-2H-pyran-4-yl]-2-(1,2-oxazol-3-ylmethyl)-1H-imidazo[4,5-c]quinoline-8-carbonitrile], for which the IC50 in test [1] was found to be 5.2 nM; in test [2], 3.9 nM.
Consider `C[C@H]1C[C@H](n2c(Cc3ccon3)nc3cnc4ccc(C#N)cc4c32)CCO1` [Example 24, 1-[(2S,4R)-2-methyltetrahydro-2H-pyran-4-yl]-2-(1,2-oxazol-3-ylmethyl)-1H-imidazo[4,5-c]quinoline-8-carbonitrile], for which the results for the IC50 in test [1] and in test [2] were 72 nM and 62 nM, respectively.
`F[C@@H]1CC[C@H](n2c(Cc3ccon3)nc3cnc4ccc(Br)cc4c32)C1` [Example 25, 8-bromo-1-[(1S,3R)-3-fluorocyclopentyl]-2-(1,2-oxazol-3-ylmethyl)-1H-imidazo[4,5-c]quinoline, formate salt]: the IC50 worked out at 56.3 nM in test [1] and 30.8 nM in test [2].
As for `F[C@H]1CC[C@@H](n2c(Cn3cncn3)nc3cnc4ccccc4c32)C1` [Example 26, 1-[(1R,3S)-3-fluorocyclopentyl]-2-(1H-1,2,4-triazol-1-ylmethyl)-1H-imidazo[4,5-c]quinoline], the IC50 in test [1] stood at 162 nM; in test [2], 155 nM.
On to `Cc1cn(Cc2nc3cnc4ccccc4c3n2[C@@H]2CC[C@H](F)C2)nn1` [Example 27, 1-[(1R,3S)-3-fluorocyclopentyl]-2-[(4-methyl-1H-1,2,3-triazol-1-yl)methyl]-1H-imidazo[4,5-c]quinoline, formate salt], for which the IC50 was determined as 188 nM in test [1] and 118 nM in test [2].
For the molecule `F[C@H]1CC[C@@H](n2c(Cc3nc4ccccc4o3)nc3cnc4ccccc4c32)C1` [Example 28, 2-(1,3-benzoxazol-2-ylmethyl)-1-[(1R,3S)-3-fluorocyclopentyl]-1H-imidazo[4,5-c]quinoline], the IC50 turned out to be 153 nM in test [1] and 157 nM in test [2].
Consider `c1ccc2c(c1)ncc1nc(Cc3noc4ccccc34)n(C3CCOCC3)c12` [Example 29, 2-(1,2-benzoxazol-3-ylmethyl)-1-(tetrahydro-2H-pyran-4-yl)-1H-imidazo[4,5-c]quinoline], for which the IC50 in test [1] was found to be 164 nM; in test [2] it was 226 nM.
On to `c1ccc2c(c1)ncc1nc(Cn3cncn3)n(C3CCOCC3)c12` [Example 30, 1-(tetrahydro-2H-pyran-4-yl)-2-(1H-1,2,4-triazol-1-ylmethyl)-1H-imidazo[4,5-c]quinoline], for which the IC50 in test [1] is 120 nM; in test [2], 146 nM.
The corresponding values for `Cc1cn2cc(Cc3nc4cnc5ccccc5c4n3C3CCOCC3)nc2s1` [Example 31, 2-[(2-methylimidazo[2,1-b][1,3]thiazol-6-yl)methyl]-1-(tetrahydro-2H-pyran-4-yl)-1H-imidazo[4,5-c]quinoline] are 126 nM and 151 nM.
The corresponding values for `Cc1cn(Cc2nc3cnc4ccccc4c3n2C2CCOCC2)nn1` [Example 32, 2-[(4-methyl-1H-1,2,3-triazol-1-yl)methyl]-1-(tetrahydro-2H-pyran-4-yl)-1H-imidazo[4,5-c]quinoline] are 98.6 nM and 121 nM.
`COCc1cn(Cc2nc3cnc4ccccc4c3n2C2CCOCC2)nn1` [Example 33, 2-{[4-(methoxymethyl)-1H-1,2,3-triazol-1-yl]methyl}-1-(tetrahydro-2H-pyran-4-yl)-1H-imidazo[4,5-c]quinoline]: the IC50 in test [1] worked out at 124 nM; in test [2] it was 172 nM.
In the case of `c1ccc2oc(Cc3nc4cnc5ccccc5c4n3C3CCOCC3)nc2c1` [Example 34, 2-(1,3-benzoxazol-2-ylmethyl)-1-(tetrahydro-2H-pyran-4-yl)-1H-imidazo[4,5-c]quinoline], the IC50 in test [1] came to 111 nM; in test [2], 139 nM.
The corresponding values for `c1ccc2c(c1)ncc1nc(Cn3cnnn3)n(C3CCOCC3)c12` [Example 35, 1-(tetrahydro-2H-pyran-4-yl)-2-(1H-tetrazol-1-ylmethyl)-1H-imidazo[4,5-c]quinoline] are 152 nM and 211 nM.
The corresponding values for `c1ccc2c(c1)ncc1nc(Cc3cscn3)n(C3CCOCC3)c12` [Example 36, 1-(tetrahydro-2H-pyran-4-yl)-2-(1,3-thiazol-4-ylmethyl)-1H-imidazo[4,5-c]quinoline, formate salt] are 85.5 nM and 90.5 nM.
With `COc1ccc(Cc2nc3cnc4ccccc4c3n2C2CCOCC2)nc1` [Example 37, 2-[(5-methoxypyridin-2-yl)methyl]-1-(tetrahydro-2H-pyran-4-yl)-1H-imidazo[4,5-c]quinoline], the IC50 in test [1] was 133 nM; in test [2], 143 nM.
On to `Cc1nn2cc(Cc3nc4cnc5ccccc5c4n3C3CCOCC3)nc2s1` [Example 38, 2-[(2-methylimidazo[2,1-b][1,3,4]thiadiazol-6-yl)methyl]-1-(tetrahydro-2H-pyran-4-yl)-1H-imidazo[4,5-c]quinoline], for which the IC50 is 36 nM in test [1] and 41.6 nM in test [2].
The corresponding values for `Cc1cc(Cc2nc3cnc4ccccc4c3n2C2CCOCC2)no1` [Example 39, 2-[(5-methyl-1,2-oxazol-3-yl)methyl]-1-(tetrahydro-2H-pyran-4-yl)-1H-imidazo[4,5-c]quinoline] are 103 nM and 157 nM.
For `CC(C)(O)c1cn(Cc2nc3cnc4ccccc4c3n2C2CCOCC2)nn1` [Example 40, 2-(1-{[1-(tetrahydro-2H-pyran-4-yl)-1H-imidazo[4,5-c]quinolin-2-yl]methyl}-1H-1,2,3-triazol-4-yl)propan-2-ol], the IC50 amounted to 141 nM in test [1] and 120 nM in test [2].
With `c1ccc2c(c1)ncc1nc(Cn3nnc4ccccc43)n(C3CCOCC3)c12` [Example 41, 2-(1H-benzotriazol-1-ylmethyl)-1-(tetrahydro-2H-pyran-4-yl)-1H-imidazo[4,5-c]quinoline], the IC50 was 124 nM in test [1] and 93.5 nM in test [2].
Regarding `c1ccc2c(c1)ncc1nc(Cn3cc(C4CC4)nn3)n(C3CCOCC3)c12` [Example 42, 2-[(4-cyclopropyl-1H-1,2,3-triazol-1-yl)methyl]-1-(tetrahydro-2H-pyran-4-yl)-1H-imidazo[4,5-c]quinoline], the IC50 in test [1] stood at 51.2 nM; in test [2] it was 55.9 nM.
Turning to `FC(F)(F)c1cnn(Cc2nc3cnc4ccccc4c3n2C2CCOCC2)c1` [Example 43, 1-(tetrahydro-2H-pyran-4-yl)-2-{[4-(trifluoromethyl)-1H-pyrazol-1-yl]methyl}-1H-imidazo[4,5-c]quinoline], the IC50 in test [1] turned out to be 119 nM; in test [2], 110 nM.
As to `CC(C)c1cn(Cc2nc3cnc4ccccc4c3n2C2CCOCC2)nn1` [Example 44, 2-{[4-(propan-2-yl)-1H-1,2,3-triazol-1-yl]methyl}-1-(tetrahydro-2H-pyran-4-yl)-1H-imidazo[4,5-c]quinoline], the IC50 in test [1] was found to be 62.5 nM; in test [2], 72.2 nM.
